These results are taken from PubChem BioAssay AID330 (DTP/NCI, 2004).

For this experiment, the system named is P388 leukemia ip, CD2F1 mice, survival T/C. Description: NCI In Vivo Anticancer Drug Screen. Data for tumor model P388 Leukemia (intraperitoneal) in CD2F1 (CDF1) mice. The following applies: endpoint: median survival time, higher = longer survival. The method in brief: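 Mice carrying the transplanted tumor received test compound or vehicle. Survival was recorded in each group, and the value is the treated-group measurement divided by that of the vehicle-treated control group.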

[1] abbreviates: dose: 50.0 mg/kg/injection, schedule: Q01DX005 (ip), vehicle: saline with Tween-80.
The mark [2] stands for this setting: dose: 100.0 mg/kg/injection, schedule: Q01DX005 (ip), vehicle: saline with Tween-80.
Setting [3] is: dose: 200.0 mg/kg/injection, schedule: Q01DX005 (ip), vehicle: saline with Tween-80.
Setting [4] is: dose: 50.0 mg/kg/injection, schedule: Q01DX009 (ip), vehicle: saline with Tween-80.
The mark [5] stands for this setting: dose: 100.0 mg/kg/injection, schedule: Q01DX009 (ip), vehicle: saline with Tween-80.
Setting [6] is: dose: 25.0 mg/kg/injection, schedule: Q01DX009 (ip), vehicle: water.
[7] abbreviates: dose: 100.0 mg/kg/injection, schedule: Q01DX009 (ip), vehicle: water.
The mark [8] stands for this setting: dose: 200.0 mg/kg/injection, schedule: Q01DX009 (ip), vehicle: saline with Tween-80.
Where [9] appears, read: dose: 60.0 mg/kg/injection, schedule: Q01DX005 (ip), vehicle: saline with Tween-80.
Where [10] appears, read: dose: 240.0 mg/kg/injection, schedule: Q01DX005 (ip), vehicle: saline with Tween-80.
Where [11] appears, read: dose: 50.0 mg/kg/injection, schedule: Q01DX005 (ip), vehicle: Klucel (hydroxypropylcellulose) (HPC).
Setting [12] is: dose: 100.0 mg/kg/injection, schedule: Q01DX005 (ip), vehicle: Klucel (hydroxypropylcellulose) (HPC).
The mark [13] stands for this setting: dose: 200.0 mg/kg/injection, schedule: Q01DX005 (ip), vehicle: Klucel (hydroxypropylcellulose) (HPC).

“And” between values parts separate entries of the source, which are not always exact repeats. Identical values can stand only once. Toxic doses and inconclusive results are not listed.

As for `COC(=O)C1=C(C(=O)OC)C2CCCOC2=C(C)C1` (stereo not given), the T/C under setting [1] is 96 % of control, the T/C under setting [2] was 95 % of control and the T/C under setting [3] is 93 % of control.

As to `O=C(NC1CC(c2ccccc2)(c2ccccc2)OC1=O)c1ccccc1` (stereo not given), the T/C is, setting by setting: under setting [4], 100 % of control; under setting [5], 86 % of control.

On to `CC1=CC(=O)C2C1CC(=O)C1(C)C3C(=O)OC(C3C)C(O)C21` (stereo not given), for which the T/C runs as follows: (dose: 2.0 mg/kg/injection, schedule: Q01DX005 (ip), vehicle: Klucel (hydroxypropylcellulose) (HPC)) 94 % of control; (dose: 4.0 mg/kg/injection, schedule: Q01DX005 (ip), vehicle: Klucel (hydroxypropylcellulose) (HPC)) 100 % of control; (dose: 8.0 mg/kg/injection, schedule: Q01DX005 (ip), vehicle: Klucel (hydroxypropylcellulose) (HPC)) 103 % of control; (dose: 16.0 mg/kg/injection, schedule: Q01DX005 (ip), vehicle: Klucel (hydroxypropylcellulose) (HPC)) 98 % of control; (dose: 32.0 mg/kg/injection, schedule: Q01DX005 (ip), vehicle: Klucel (hydroxypropylcellulose) (HPC)) 100 % of control.

For `O=NN(CCS(=O)CCCl)C(=O)NC1CCCCC1` (stereo not given), the T/C runs as follows: (dose: 3.13 mg/kg/injection, schedule: Q01DX009 (ip), vehicle: water) 102 % of control; (dose: 6.25 mg/kg/injection, schedule: Q01DX009 (ip), vehicle: water) 110 % of control; (dose: 12.5 mg/kg/injection, schedule: Q01DX009 (ip), vehicle: water) 111 % of control; under setting [6], 124 % of control; under setting [7], 159 % of control.

Turning to `CC(N)C(=O)NC1C(O)OC(CO)C(O)C1O` (stereo not given), the T/C under setting [6] was 101 % of control; the T/C (dose: 50.0 mg/kg/injection, schedule: Q01DX009 (ip), vehicle: water) was 104 % of control; the T/C under setting [7] is 111 % of control; the T/C (dose: 200.0 mg/kg/injection, schedule: Q01DX009 (ip), vehicle: water) was 104 % of control; the T/C (dose: 400.0 mg/kg/injection, schedule: Q01DX009 (ip), vehicle: water) is 101 % of control; the T/C (dose: 800.0 mg/kg/injection, schedule: Q01DX009 (ip), vehicle: water) is 93 % of control.

With `O=c1[nH]c2ccc(Cl)cc2[nH]c1=O`, the T/C runs as follows: under setting [1], 99 % of control; under setting [2], 100 % of control; under setting [3], 94 % of control.

For the compound `NCc1cc(O)c(O)c(O)c1`, the T/C (dose: 25.0 mg/kg/injection, schedule: Q01DX009 (ip), vehicle: saline) was 100 % of control; the T/C (dose: 50.0 mg/kg/injection, schedule: Q01DX009 (ip), vehicle: saline) was 103 % of control and 120 % of control; the T/C (dose: 100.0 mg/kg/injection, schedule: Q01DX009 (ip), vehicle: saline) is 110 % of control and 118 % of control and 114 % of control; the T/C (dose: 200.0 mg/kg/injection, schedule: Q01DX009 (ip), vehicle: saline) was 116 % of control and 120 % of control and 122 % of control; the T/C (dose: 400.0 mg/kg/injection, schedule: Q01DX009 (ip), vehicle: saline) is 121 % of control and 123 % of control and 124 % of control; the T/C (dose: 600.0 mg/kg/injection, schedule: Q01DX009 (ip), vehicle: saline) was 155 % of control and 157 % of control and 150 % of control.

Take `COCCOC(=O)CCCCC(=O)OCCOC`: the T/C by setting is: under setting [5], 100 % of control; (dose: 100.0 mg/kg/injection, schedule: Q04DX003 (ip), vehicle: saline sonified) 100 % of control; under setting [8], 104 % of control; (dose: 200.0 mg/kg/injection, schedule: Q04DX003 (ip), vehicle: saline sonified) 100 % of control; (dose: 400.0 mg/kg/injection, schedule: Q01DX009 (ip), vehicle: saline with Tween-80) 109 % of control; (dose: 400.0 mg/kg/injection, schedule: Q04DX003 (ip), vehicle: saline sonified) 95 % of control.

Consider `COc1cc(C(c2cc3c(cc2O)OCO3)N2CCN(C(c3cc(OC)c(O)c(OC)c3)c3cc4c(cc3O)OCO4)CC2)cc(OC)c1O` (stereo not given), for which the T/C by setting is: under setting [9], 91 % of control; (dose: 120.0 mg/kg/injection, schedule: Q01DX005 (ip), vehicle: saline with Tween-80) 89 % of control; under setting [10], 91 % of control.

With `Cc1cc(Cl)c2c(c1N)C(=O)c1ccccc1C2=O`, the T/C reads like this: under setting [11], 97 % of control; under setting [12], 96 % of control; under setting [13], 98 % of control.

On to `CCOC(=O)c1cc(N)c(N2CCCC2)cc1Cl`, for which the T/C was 100 % of control (dose: 90.0 mg/kg/injection, schedule: Q04DX003 (ip), vehicle: saline with Tween-80); 100 % of control (dose: 133.0 mg/kg/injection, schedule: Q04DX003 (ip), vehicle: saline with Tween-80); 90 % of control (dose: 200.0 mg/kg/injection, schedule: Q04DX003 (ip), vehicle: saline with Tween-80); 95 % of control (dose: 300.0 mg/kg/injection, schedule: Q04DX003 (ip), vehicle: saline with Tween-80).

On to `COc1ccc2c(c1O)C1=CC(O)CCC13CCN(C)C3C2` (stereo not given), for which the T/C is 100 % of control (dose: 100.0 mg/kg/injection, schedule: Q04DX002 (ip), vehicle: suspension in saline); 96 % of control (dose: 200.0 mg/kg/injection, schedule: Q04DX002 (ip), vehicle: suspension in saline); 103 % of control (dose: 400.0 mg/kg/injection, schedule: Q04DX002 (ip), vehicle: suspension in saline).

Turning to `Nc1[nH]c(=O)[nH]c(=O)c1S(=O)(=O)O`, the T/C is, setting by setting: (dose: 50.0 mg/kg/injection, schedule: Q01DX009 (ip), vehicle: Klucel (hydroxypropylcellulose) (HPC)) 95 % of control; (dose: 100.0 mg/kg/injection, schedule: Q01DX009 (ip), vehicle: Klucel (hydroxypropylcellulose) (HPC)) 90 % of control; (dose: 200.0 mg/kg/injection, schedule: Q01DX009 (ip), vehicle: Klucel (hydroxypropylcellulose) (HPC)) 95 % of control.

`Cc1cc2c(=O)cc(-c3ccccc3)oc2c(C(=O)O)c1C`: the T/C is 103 % of control (dose: 30.0 mg/kg/injection, schedule: Q01DX005 (ip), vehicle: saline with Tween-80); 114 % of control and 118 % of control under setting [9]; 161 % of control under setting [10].

For `CC1(C)OC2OC(C3COC(=O)O3)C(O)C2O1` (stereo not given), the T/C under setting [11] was 95 % of control, the T/C under setting [12] was 98 % of control and the T/C under setting [13] was 101 % of control.

In the case of `COc1cccc(C2OC3=C(Nc4ccc([N+](=O)[O-])cc4N3)C2=O)c1` (stereo not given), the T/C was 102 % of control under setting [11], 101 % of control under setting [12] and 96 % of control under setting [13].

Consider `FC(F)Oc1ccccc1`, for which the T/C is 105 % of control (dose: 50.0 mg/kg/injection, schedule: Q01DX009 (ip), vehicle: acetone); 100 % of control and 101 % of control under setting [4]; 113 % of control (dose: 100.0 mg/kg/injection, schedule: Q01DX009 (ip), vehicle: acetone); 100 % of control and 110 % of control under setting [5]; 110 % of control (dose: 200.0 mg/kg/injection, schedule: Q01DX009 (ip), vehicle: acetone); 114 % of control under setting [8].

For the compound `CSC(=S)n1nc(-c2ccccc2)c(N=Nc2ccc(Br)cc2)c1-c1ccccc1`, the T/C runs as follows: (dose: 100.0 mg/kg/injection, schedule: Q04DX002 (ip), vehicle: Klucel (hydroxypropylcellulose) (HPC)) 100 % of control; (dose: 200.0 mg/kg/injection, schedule: Q04DX002 (ip), vehicle: Klucel (hydroxypropylcellulose) (HPC)) 97 % of control; (dose: 400.0 mg/kg/injection, schedule: Q04DX002 (ip), vehicle: Klucel (hydroxypropylcellulose) (HPC)) 101 % of control.
